From patent US20070249590A1, “Substituted indolo[2,3-a]pyrrolo[3,4-c]carbazole compounds useful in treating kinase disorders” (priority 2005, published 2007) come the findings set out here.

The experiment addresses T1, JAK3 (JH1 and JH2 domain) (Homo sapiens, UniProt P52333).
T1 sequence (P52333 521-1111 limits assumed): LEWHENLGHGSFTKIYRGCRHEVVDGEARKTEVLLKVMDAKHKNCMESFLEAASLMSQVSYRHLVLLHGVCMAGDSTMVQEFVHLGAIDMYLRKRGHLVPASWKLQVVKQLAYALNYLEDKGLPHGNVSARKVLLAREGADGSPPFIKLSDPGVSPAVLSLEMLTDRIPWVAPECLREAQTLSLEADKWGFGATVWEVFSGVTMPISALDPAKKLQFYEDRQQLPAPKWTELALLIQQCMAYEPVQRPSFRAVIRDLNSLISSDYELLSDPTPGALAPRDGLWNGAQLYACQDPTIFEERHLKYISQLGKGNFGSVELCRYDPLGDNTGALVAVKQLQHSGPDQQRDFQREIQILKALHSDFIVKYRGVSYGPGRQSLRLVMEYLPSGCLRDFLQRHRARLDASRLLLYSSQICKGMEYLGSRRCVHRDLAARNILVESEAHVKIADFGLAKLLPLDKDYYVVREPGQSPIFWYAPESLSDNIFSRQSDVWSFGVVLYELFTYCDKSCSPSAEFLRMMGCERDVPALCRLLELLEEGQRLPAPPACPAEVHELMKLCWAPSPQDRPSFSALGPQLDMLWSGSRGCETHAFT
Nature of the experiment: JAK3 Kinase Assay (ELISA of peptide substrate phosphorylation). In kind it is biochemical. The note with it: purified JAK3 enzyme, 10 μM ATP, biotinylated peptide substrate, 1 hour at room temperature. As to the method:
JAK3 enzyme activity was assayed relative to enzyme phosphorylation using the method described herein.
Sf21 cells derived from the ovarian tissue of the fall armyworm Spodotera frugiperda were obtained from Pharmingen (San Diego, Calif.) and maintained at a temperature of about 26-28° C. in 1 l Bellco spinner flasks at 60-90 rpm. Cell viability was maintained at 95-100%, as determined by a tryptan blue dye exclusion test.
Sf21 cells were infected with a baculovirus expression vector for JAK3 (JH1 and JH2 domain). After 48 hours of infection, cells were harvested and lysed in Tris-saline (pH 7.6) containing 2% NP-40 and a combination of protease inhibitors (Aprotinin, Pepstatin A, Pefabloc, E-64, Leupeptin, and Benzamidine) on ice for 45 minutes.
The JAK3 enzyme was purified from the lysate using glutathione sepharose beads and the enzyme activity was assessed in Costar flat bottom EIA/RIA 96 well plates. The plates were coated with Neutravidin (110 μL) (Pierce Neutravidin Biotin-binding Protein 31000; 1 mg/mL 1:100) diluted in PBS for 1 hour at room temperature. The plates were washed with PBS-0.1% Tween (3 times) to remove unbound Neutravidin, then 1% BSA (150 NIL) in PBS was added to each well to block non-specific binding. The plates was incubated for 1 hour at room temperature and stored at −80° C. until use.
JAK3 enzyme solution (48 μL) in 1.25×TK buffer (62.5 mM HEPES pH 7.5, 12.5 mM MgCl2) containing DTT (42 mM) (Sigma, St. Louis, Mo.) was added to each well of a polypropylene 96 well plate.
A test compound (5 μL) diluted in DMSO (48 μL) and biotinylated peptide enzyme substrate (5 μg diluted in TK buffer containing 10 μM ATP) were added to each well using the double dispense feature of a multichannel electronic biohit. Control wells received DMSO vehicle (5 μL). The contents of the wells were mixed for approximately 8 seconds using a multitube vortexer and the reaction mixture was incubated for 1 hour at room temperature.
After incubation, an aliquot of reaction mixture (90 μL) was transferred into a washed Neutravidin coated plate. The plate was incubated for 15 minutes at room temperature and washed 3 times with PBS-T. PY99 anti-phosphotyrosine antibody (100 μL/well) (Santa Cruz #sc-7020HRP diluted 1:6000 in 1× antibody buffer) was added into each well and the plate was incubated for 40 minutes at room temperature. The antibody buffer contained 10% BSA, 100 mM Tris (pH 7.5), 1M NaCl and 1% Tween 20. The plate washed 3 times with PBS-T, then TMB (100 pLXSigma, St. Louis, Mo.) was added to the each well. The plate was incubated for another 40 mins at room temperature in the dark. The reaction was stopped by the addition of 1M H2SO4 (50 μL/well) and the optical density was read at 450/650 nm.
Test compounds were assayed in triplicate at 16 concentrations at half-log dilutions starting at 200 μM. A maximum and minimum signal for the assay was determined on each plate. The percent inhibition of a test compound was calculated according to the formula [formula]
For a series of test concentrations, the IC50 was derived by graphing percent inhibition against the log of the concentrations tested for a given compound. For those compounds without an IC50, the percent inhibition results are shown at a test concentration of 1 μM.
For orientation: ELISA stands for enzyme-linked immunosorbent assay.
The IC50 is the concentration that inhibits the measured activity by half. `COc1ccc(CCNC(=O)OC2CCn3c4ccccc4c4c5c(c6c7ccccc7n(c6c43)C2)C(=O)NC5=O)cc1OC` (centres unmarked) [Cpd 49, 12,13-(2-{[2-(3,4-dimethoxy-phenyl)ethyl]carbamoyloxy}-butan-1,4-yl)-12,13-dihydro-5,7-dioxo-6H-indolo[2,3-a]pyrrolo[3,4-c]carbazole]: the IC50 was found to be 39 nM.

On to `O=C1NC(=O)c2c1c1c3ccccc3n3c1c1c2c2ccccc2n1CC(O)CCC3` (centres unmarked) [Cpd 8], for which the IC50 was found to be 8 nM.

As for `O=Cc1ccc2c(c1)c1c3c(c4c5cc(Br)ccc5n5c4c1n2CC(CO)C5)C(=O)NC3` (centres unmarked) [Cpd 207, 3-bromo-9-formyl-12,13-(2-hydroxymethyl-propan-1,3-yl)-6,7,12,13-tetrahydro-5-oxo-5H-indolo[2,3-a]pyrrolo[3,4-c]carbazole], the IC50 came to 13 nM.

As for `CC1(O)Cn2c3ccccc3c3c4c(c5c6ccccc6n(c5c32)CC1(C)O)C(=O)NC4` (centres unmarked) [Cpd 20, 12,13-(2,3-dimethyl-2,3-dihydroxy-butan-1,4-yl)-6,7,12,13-tetrahydro-5-oxo-5H-indolo[2,3-a]pyrrolo[3,4-c]carbazole], the IC50 is 12 nM.

Turning to `O=C1NC(=O)c2c1c1c3ccccc3n3c1c1c2c2ccccc2n1CC(O)(C(=O)N1CCC(O)CC1)C(O)C3` (centres unmarked) [Cpd 132, 12,13-{2-[(4-hydroxy-piperidin-1-yl)carbonyl]-2,3-dihydroxy-butan-1,4-yl}-12,13-dihydro-5,7-dioxo-6H-indolo[2,3-a]pyrrolo[3,4-c]carbazole], the IC50 amounted to 28 nM.

Take `CN(C)CCN(C)C(=O)OCC1(O)Cn2c3ccccc3c3c4c(c5c6ccccc6n(c5c32)C1)C(=O)NC4` (centres unmarked) [Cpd 148, 12,13-(2-hydroxy-2-{[N-methyl-N-(2-dimethylamino-ethyl)]carbamoyloxymethyl}-propan-1,3-yl)-6,7,12,13-tetrahydro-5-oxo-5H-indolo[2,3-a]pyrrolo[3,4-c]carbazole]: the IC50 was 25 nM.

For `O=C1NC(=O)c2c1c1c3ccccc3n3c1c1c2c2ccccc2n1CC(OC(=O)N1CCCC1CN1CCCC1)CC3` (centres unmarked) [Cpd 52, 12,13-(2-{[2-(pyrrolidin-1-yl-methyl)pyrrolidin-1-yl]carbonyloxy}-butan-1,4-yl)-12,13-dihydro-5,7-dioxo-6H-indolo[2,3-a]pyrrolo[3,4-c]carbazole], the IC50 was found to be 446 nM.

Regarding `O=C1NCc2c1c1c3cc(CO)ccc3n3c1c1c2c2cc(CO)ccc2n1CC(CO)C3` (centres unmarked) [Cpd 215, 3,9-bis-(hydroxymethyl)-12,13-(2-hydroxymethyl-propan-1,3-yl)-6,7,12,13-tetrahydro-5-oxo-5H-indolo[2,3-a]pyrrolo[3,4-c]carbazole], the IC50 was 8 nM.

With `O=C1NCc2c1c1c3ccccc3n3c1c1c2c2ccccc2n1CC(O)(COC(=O)N1CCC(N2CCCC2)CC1)C3` (centres unmarked) [Cpd 150, 12,13-{2-hydroxy-2-[(4-pyrrolidin-1-yl-piperidin-1-yl)carbonyloxymethyl]-propan-1,3-yl}-6,7,12,13-tetrahydro-5-oxo-5H-indolo[2,3-a]pyrrolo[3,4-c]carbazole], the IC50 was found to be 45 nM.

Regarding `O=C(NC1CCNCC1)OCC1(O)Cn2c3ccccc3c3c4c(c5c6ccccc6n(c5c32)C1)C(=O)NC4` (centres unmarked) [Cpd 178, 12,13-[2-hydroxy-2-(piperidin-4-yl-carbamoyloxymethyl)-propan-1,3-yl]-6,7,12,13-tetrahydro-5-oxo-5H-indolo[2,3-a]pyrrolo[3,4-c]carbazole], the IC50 was 154 nM.

Regarding `CN(C)CCNC(=O)OC1Cn2c3ccccc3c3c4c(c5c6ccccc6n(c5c32)CC1O)C(=O)NC4=O` (centres unmarked) [Cpd 77, 12,13-[2-[(2-dimethylamino-ethyl)carbamoyloxy]-3-hydroxy-butan-1,4-yl]-12,13-dihydro-5,7-dioxo-6H-indolo[2,3-a]pyrrolo[3,4-c]carbazole], the IC50 amounted to 86 nM.

Consider `CN1CCN(C(=O)C2(O)Cn3c4ccccc4c4c5c(c6c7ccccc7n(c6c43)CC2O)C(=O)NC5=O)CC1` (centres unmarked) [Cpd 125, 12,13-{2-[(4-methyl-piperazin-1-yl)carbonyl]-2,3-dihydroxy-butan-1,4-yl}-12,13-dihydro-5,7-dioxo-6H-indolo[2,3-a]pyrrolo[3,4-c]carbazole], for which the IC50 came out at 27 nM.

Turning to `O=C1NC(=O)c2c1c1c3ccccc3n3c1c1c2c2ccccc2n1CC(O)C(O)CC3` (centres unmarked) [Cpd 11, 12,13-(2,3-dihydroxy-pentan-1,5-yl)-12,13-dihydro-5,7-dioxo-6H-indolo[2,3-a]pyrrolo[3,4-c]carbazole], the IC50 came out at 9 nM.

As to `O=C(NCCc1ccccn1)OC1Cn2c3ccccc3c3c4c(c5c6ccccc6n(c5c32)CC1O)C(=O)NC4=O` (centres unmarked) [Cpd 82, 12,13-{2-[(2-pyridin-2-yl-ethyl)carbamoyloxy]-3-hydroxy-butan-1,4-yl}-12,13-dihydro-5,7-dioxo-6H-indolo[2,3-a]pyrrolo[3,4-c]carbozole], the IC50 was found to be 134 nM.

In the case of `O=C1NCc2c1c1c3cc(/C=C/c4ccccn4)ccc3n3c1c1c2c2ccccc2n1CC(CO)C3` (centres unmarked) [Cpd 216, 3-[(2E)-2-pyridin-2-yl-ethenyl]-12,13-(2-hydroxymethyl-propan-1,3-yl)-6,7,12,13-tetrahydro-5-oxo-5H-indolo[2,3-a]pyrrolo[3,4-c]carbazole], the IC50 was 310 nM.

In the case of `O=C1NCc2c1c1c3cc(O)ccc3n3c1c1c2c2ccccc2n1CC(O)C(O)C3` (centres unmarked) [Cpd 189, 3-hydroxy-12,13-(2,3-dihydroxy-butan-1,4-yl)-6,7,12,13-tetrahydro-5-oxo-5H-indolo[2,3-a]pyrrolo[3,4-c]carbazole], the IC50 is 3 nM.

With `CN(C)CCNC(=O)/C=C/c1ccc2c(c1)c1c3c(c4c5ccccc5n5c4c1n2CC(CO)C5)CNC3=O` (centres unmarked) [Cpd 222, 3-{(2E)-2-[(2-dimethylamino-ethyl)carbamoyl]ethenyl}-12,13-(2-hydroxymethyl-propan-1,3-yl)-6,7,12,13-tetrahydro-5-oxo-5H-indolo[2,3-a]pyrrolo[3,4-c]carbazole], the IC50 turned out to be 237 nM.

With `O=C1NC(=O)c2c1c1c3ccccc3n3c1c1c2c2ccccc2n1CC(OC(=O)N1CCN(c2ccncc2)CC1)CC3` (centres unmarked) [Cpd 55, 12,13-{2-[(4-pyridin-4-yl-piperazin-1-yl)carbonyloxy]-butan-1,4-yl}-12,13-dihydro-5,7-dioxo-6H-indolo[2,3-a]pyrrolo[3,4-c]carbazole], the IC50 was determined as 314 nM.

As for `O=C(NC1CCNCC1)OC1Cn2c3ccccc3c3c4c(c5c6ccccc6n(c5c32)CC1O)C(=O)NC4=O` (centres unmarked) [Cpd 113, 12,13-[2-(piperidin-4-yl-carbamoyloxy)-3-hydroxy-butan-1,4-yl]-12,13-dihydro-5,7-dioxo-6H-indolo[2,3-a]pyrrolo[3,4-c]carbazole], the IC50 turned out to be 47 nM.

`COCCNC(=O)OC1Cn2c3ccccc3c3c4c(c5c6ccccc6n(c5c32)CC1O)C(=O)NC4=O` (centres unmarked) [Cpd 83, 12,13-{2-[(2-methoxy-ethyl)carbamoyloxy]-3-hydroxy-butan-1,4-yl}-12,13-dihydro-5,7-dioxo-6H-indolo[2,3-a]pyrrolo[3,4-c]carbazole]: the IC50 came to 29 nM.
